Where a name gives a salt, the structure may show the parent alone.
Assays:
HIS-TGFβR2 WT = HIS-TGFβR2 WT (Homo sapiens, UniProt P37173); assay: HTRF probe-displacement assay with HIS-TGFβR2 WT; type: binding; conditions: 1 nM HIS-TGFβR2 WT, labeled probe at Kd, 1 hour at room temperature
Experimental: (§1) The reaction is incubated for 1 hour at room temperature and the HTRF signal was measured on an Envision plate reader (Ex: 340 nm; Em: 520 nm/495 nm). Inhibition data were calculated by comparison to no enzyme control reactions for 100% inhibition and vehicle-only reactions for 0% inhibition. The final concentration of reagents in the assay are 1 nM HIS-TGFβR1 T204D or HIS-TGFβR2 WT, 0.2 nM anti-HIS detection antibody, labeled small molecule probe (at Kd) and 0.5% DMSO. Dose response curves were generated to determine the concentration required inhibiting 50% of kinase activity (IC50). Compounds were dissolved at 10 mM in dimethylsulfoxide (DMSO) and evaluated at eleven concentrations. IC50 values were derived by non-linear regression analysis.

HIS-TGFβR1 T204D = target: T1, HIS-TGFβR1 T204D (Homo sapiens, UniProt P36897, T204D); assay: HTRF probe-displacement assay with HIS-TGFβR1 T204D; type: binding; conditions: 1 nM HIS-TGFβR1 T204D, labeled probe at Kd, 1 hour at room temperature
T1 sequence (P36897 34-503 T204D): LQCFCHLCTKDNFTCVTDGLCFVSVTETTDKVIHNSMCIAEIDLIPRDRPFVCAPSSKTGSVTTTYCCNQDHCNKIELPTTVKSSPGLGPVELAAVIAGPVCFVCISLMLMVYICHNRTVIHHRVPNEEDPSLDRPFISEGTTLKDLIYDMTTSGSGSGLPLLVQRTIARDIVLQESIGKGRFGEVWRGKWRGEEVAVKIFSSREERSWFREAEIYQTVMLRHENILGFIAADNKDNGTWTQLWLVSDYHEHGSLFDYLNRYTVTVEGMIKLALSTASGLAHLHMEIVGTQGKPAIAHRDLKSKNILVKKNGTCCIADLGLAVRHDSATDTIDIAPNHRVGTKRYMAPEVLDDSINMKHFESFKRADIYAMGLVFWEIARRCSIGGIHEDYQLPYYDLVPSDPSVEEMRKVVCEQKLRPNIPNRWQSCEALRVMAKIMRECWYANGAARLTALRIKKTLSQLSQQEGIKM
Experimental: as §1

Sequence of HIS-TGFβR2 WT (P37173 23-567): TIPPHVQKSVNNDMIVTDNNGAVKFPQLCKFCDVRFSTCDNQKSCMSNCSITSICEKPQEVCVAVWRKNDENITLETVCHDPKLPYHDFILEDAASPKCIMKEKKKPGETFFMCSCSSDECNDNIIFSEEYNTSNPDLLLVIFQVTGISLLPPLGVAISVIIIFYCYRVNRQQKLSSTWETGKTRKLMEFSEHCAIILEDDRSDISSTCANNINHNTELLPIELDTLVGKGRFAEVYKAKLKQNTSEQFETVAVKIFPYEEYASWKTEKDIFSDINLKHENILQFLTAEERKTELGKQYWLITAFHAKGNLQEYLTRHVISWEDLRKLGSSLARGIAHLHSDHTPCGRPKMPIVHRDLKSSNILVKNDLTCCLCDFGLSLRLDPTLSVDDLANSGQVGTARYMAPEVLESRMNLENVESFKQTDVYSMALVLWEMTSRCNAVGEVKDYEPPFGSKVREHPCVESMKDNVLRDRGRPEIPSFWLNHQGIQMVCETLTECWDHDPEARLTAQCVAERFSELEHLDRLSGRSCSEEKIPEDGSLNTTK

Row | SMILES | IC50 (HIS-TGFβR2 WT) [µM] | IC50 (HIS-TGFβR1 T204D) [µM]
1 | NC(=O)c1cnc2ccc(-c3c[nH]nc3-c3cccc(C(F)(F)F)n3)cn12 [Example 2, 6-(3-(6-(trifluoromethyl)pyridin-2-yl)-1H-pyrazol-4-yl)imidazo[1,2-a]pyridine-3-carboxamide] | 1.83 | 0.001
2 | N#Cc1cnc2ccc(-c3c[nH]nc3-c3cccc(C(F)F)n3)cn12 [Example 4, 6-(3-(6-(difluoromethyl)pyridin-2-yl)-1H-pyrazol-4-yl)imidazo[1,2-a]pyridine-3-carbonitrile] | 1.11 | 0.001
3 | Cn1cc(-c2ccc3ncc(C(N)=O)n3c2)c(-c2cccc(C(F)(F)F)n2)n1 [Example 10, 6-(1-methyl-3-(6-(trifluoromethyl)pyridin-2-yl)-1H-pyrazol-4-yl)imidazo[1,2-a]pyridine-3-carboxamide] | 8.87 | 0.001
4 | Cc1nc(-c2nn(C)cc2-c2ccc3ncc(C#N)n3c2)ccc1F [Example 11, 6-(3-(5-fluoro-6-methylpyridin-2-yl)-1-methyl-1H-pyrazol-4-yl)imidazo[1,2-a]pyridine-3-carbonitrile] | 5.42 | 0.001
5 | Cc1nc(-c2nn(C)cc2-c2ccc3ncc(C(N)=O)n3c2)ccc1F [Example 12, 6-(3-(5-fluoro-6-methylpyridin-2-yl)-1-methyl-1H-pyrazol-4-yl)imidazo[1,2-a]pyridine-3-carboxamide] | 0.396 | 
6 | N#Cc1cnc2ccc(-c3c[nH]nc3-c3ccc(F)cc3)nn12 [Example 13, 6-(3-(4-fluorophenyl)-1H-pyrazol-4-yl)imidazo [1,2-b]pyridazine-3-carbonitrile] | 0.101 | 0.007
7 | NC(=O)c1cnc2ccc(-c3c[nH]nc3-c3ccc(F)cc3)nn12 [Example 14, 6-(3-(4-fluorophenyl)-1H-pyrazol-4-yl)imidazo[1,2-b]pyridazine-3-carboxamide] | 0.885 | 0.004
8 | CC(C)(C)Nc1cnc2ccc(-c3c[nH]nc3-c3ccc(F)cc3)cn12 [Example 15, N-(tert-butyl)-6-(3-(4-fluorophenyl)-1H-pyrazol-4-yl)imidazo[1,2-a]pyridin-3-amine] | 12.7 | 0.502
9 | Cc1cccc(-c2n[nH]cc2-c2ccc3[nH]ncc3c2)n1 [Example 18, 5-(3-(6-methylpyridin-2-yl)-1H-pyrazol-4-yl)-1H-indazole] | 0.752 | 
10 | Cc1cccc(-c2n[nH]cc2-c2ccc3nccn3n2)n1 [Example 19, 6-(3-(6-methylpyridin-2-yl)-1H-pyrazol-4-yl)imidazo[1,2-b]pyridazine] | 0.277 | 
11 | Cc1cccc(-c2n[nH]cc2-c2ccc3ncc(C#N)n3n2)n1 [Example 20, 6-(3-(6-methylpyridin-2-yl)-1H-pyrazol-4-yl)imidazo[1,2-b]pyridazine-3-carbonitrile] | 1.45 | 0.001
12 | Cc1cccc(-c2n[nH]cc2-c2ccc3ncc(C(N)=O)n3n2)n1 [Example 21, 6-(3-(6-methylpyridin-2-yl)-1H-pyrazol-4-yl)imidazo[1,2-b]pyridazine-3-carboxamide] | 0.205 | 
13 | Cc1cccc(-c2c(-c3ccc4ncc(C#N)n4c3)cnn2C2CC2)n1 [Example 22, 6-(1-cyclopropyl-5-(6-methylpyridin-2-yl)-1H-pyrazol-4-yl)imidazo[1,2-a]pyridine-3-carbonitrile] | 7.55 | 0.035
14 | Cc1cccc(-c2nn(C)cc2-c2ccc3ncc(C#N)n3c2)n1 [Example 23, 6-(1-methyl-3-(6-methylpyridin-2-yl)-1H-pyrazol-4-yl)imidazo[1,2-a]pyridine-3-carbonitrile] | 2.48 | 0.001
15 | Cc1cccc(-c2nn(C)cc2-c2ccc3ncc(C(N)=O)n3c2)n1 [Example 24, 6-(1-methyl-3-(6-methylpyridin-2-yl)-1H-pyrazol-4-yl)imidazo[1,2-a]pyridine-3-carboxamide] | 0.627 | 0.001
16 | Cc1cccc(-c2nn(C)cc2-c2ccc3ncc(C#N)n3n2)n1 [Example 25, 6-(1-methyl-3-(6-methylpyridin-2-yl)-1H-pyrazol-4-yl)imidazo[1,2-b]pyridazine-3-carbonitrile] | 9.74 | 0.003
17 | Cc1cccc(-c2nn(CC(F)F)cc2-c2ccc3ncc(C#N)n3c2)n1 [Example 27, 6-(1-(2,2-difluoroethyl)-3-(6-methylpyridin-2-yl)-1H-pyrazol-4-yl)imidazo[1,2-a]pyridine-3-carbonitrile] | 11.4 | 0.003

Row | SMILES | IC50 (HIS-TGFβR2 WT) [µM] | IC50 (HIS-TGFβR1 T204D) [µM]
18 | Cc1cccc(-c2nn(CC(F)F)cc2-c2ccc3ncc(C(N)=O)n3c2)n1 [Example 28, 6-(1-(2,2-difluoroethyl)-3-(6-methylpyridin-2-yl)-1H-pyrazol-4-yl)imidazo[1,2-a]pyridine-3-carboxamide] | 0.075 | 0.001
19 | Fc1ccc(-c2n[nH]cc2-c2ccn3ncnc3c2)cc1 [Example 29, 7-(3-(4-fluorophenyl)-1H-pyrazol-4-yl)-[1,2,4]triazolo[1,5-a]pyridine] | 1.1 | 0.003
20 | Fc1ccc(-c2n[nH]cc2-c2cc(F)c3nccn3c2)cc1 [Example 30, 8-fluoro-6-(3-(4-fluorophenyl)-1H-pyrazol-4-yl)imidazo[1,2-a]pyridine] | 10.3 | 0.591
21 | Fc1ccc(-c2n[nH]cc2-c2ccc3nncn3c2)cc1 [Example 31, 6-(3-(4-fluorophenyl)-1H-pyrazol-4-yl)-[1,2,4]triazolo[4,3-a]pyridine, TFA] | 9.17 | 0.112
22 | CC(=O)Nc1cc(-c2c[nH]nc2-c2ccc(F)cc2)cn2ccnc12 [Example 33, N-(6-(3-(4-fluorophenyl)-1H-pyrazol-4-yl)imidazo[1,2-a]pyridin-8-yl)acetamide] | 7.06 | 0.811
23 | Fc1ccc(-c2n[nH]cc2-c2ccc3nccn3c2)cc1 [Example 34, 6-(3-(4-fluorophenyl)-1H-pyrazol-4-yl)imidazo[1,2-a]pyridine] | 5.02 | 0.014
24 | N#Cc1cnc2ccc(-c3c[nH]nc3-c3ccc(F)cc3)cn12 [Example 35, 6-(3-(4-fluorophenyl)-1H-pyrazol-4-yl)imidazo[1,2-a]pyridine-3-carbonitrile] | 0.221 | 0.011
25 | NC(=O)c1cnc2ccc(-c3c[nH]nc3-c3ccc(F)cc3)cn12 [Example 36, 6-(3-(4-fluorophenyl)-1H-pyrazol-4-yl)imidazo[1,2-a]pyridine-3-carboxamide] | 0.696 | 0.002
26 | Cn1cc(-c2ccc3ncc(C#N)n3c2)c(-c2ccc(F)cc2)n1 [Example 37, 6-(3-(4-fluorophenyl)-1-methyl-1H-pyrazol-4-yl)imidazo[1,2-a]pyridine-3-carbonitrile] | 0.165 | 0.042
27 | Cn1cc(-c2ccc3ncc(C(N)=O)n3c2)c(-c2ccc(F)cc2)n1 [Example 38, 6-(3-(4-fluorophenyl)-1-methyl-1H-pyrazol-4-yl)imidazo[1,2-a]pyridine-3-carboxamide] | 1.54 | 0.002
28 | Fc1ccc(-c2n[nH]cc2-c2ccc3nccn3n2)cc1Cl [Example 39, 6-(3-(3-chloro-4-fluorophenyl)-1H-pyrazol-4-yl)imidazo[1,2-b]pyridazine, TFA] | 1.65 | 0.004
29 | Fc1ccc(-c2n[nH]cc2-c2ccc3nccn3c2)cc1Cl [Example 40, 6-(3-(3-chloro-4-fluorophenyl)-1H-pyrazol-4-yl)imidazo[1,2-a]pyridine, TFA] | 4.97 | 0.003
30 | N#Cc1cnc2ccc(-c3c[nH]nc3-c3ccc(F)c(Cl)c3)cn12 [Example 41, 6-(3-(3-chloro-4-fluorophenyl)-1H-pyrazol-4-yl)imidazo[1,2-a]pyridine-3-carbonitrile] | 0.098 | 0.001
31 | NC(=O)c1cnc2ccc(-c3c[nH]nc3-c3ccc(F)c(Cl)c3)cn12 [Example 42, 6-(3-(3-chloro-4-fluorophenyl)-1H-pyrazol-4-yl)imidazo[1,2-a]pyridine-3-carboxamide, TFA] | 0.33 | 0.001
32 | Cc1cc(-c2n[nH]cc2-c2ccc3ncc(C(N)=O)n3c2)ccc1F [Example 50, 6-(3-(4-fluoro-3-methylphenyl)-1H-pyrazol-4-yl)imidazo[1,2-a]pyridine-3-carboxamide] | 0.368 | 
33 | NC(=O)c1cnc2ccc(-c3cn(CC(F)F)nc3-c3ccc(F)c(Cl)c3)cn12 [Example 62, 6-(3-(3-chloro-4-fluorophenyl)-1-(2,2-difluoroethyl)-1H-pyrazol-4-yl)imidazo[1,2-a]pyridine-3-carboxamide] | 0.518 | 
34 | NC(=O)c1cnc2ccc(-c3c(-c4ccc(F)cc4)n[nH]c3C3CC3)cn12 [Example 85, 6-(5-cyclopropyl-3-(4-fluorophenyl)-1H-pyrazol-4-yl)imidazo[1,2-a]pyridine-3-carboxamide] | 0.143 | 

— US20190292179A1 (BRISTOL-MYERS SQUIBB COMPANY, priority 2016, published 2019)
